Laboratory results published in US20110020837A1, “Method for isolating or identifying a target protein interacting with a lipid in a cell” (Universiteit Utrecht Holding B.V., priority 2009, published 2011).

How the values were obtained:
[1] = UV activation of the photoactivatable diazirine ring, loss of absorption at 349.5 nm; assay type: physicochemical; conditions: ethanolic solution, thirty seconds of irradiation, 200 W mercury lamp, filter below 350 nm
Procedure: FIG. 9. Panel A, Activation of the photoactivatable diazirine ring was optimized by exposing an ethanolic solution of 10-azi-stearic acid (10-ASA) under the described conditions to UV-light for the indicated time. Absorbance at 349.5 nm was measured to monitor decay of 10-ASA. Panel B, A solution of defatted BSA (1 mg/ml) was irradiated under the same conditions and analyzed by SDS-PAGE.
Samples were irradiated applying a 200 W high pressure mercury lamp (Oriel Photomax) equipped with a PYREX® glass filter to remove wavelengths below 350 nm. Samples were placed on ice at a distance from 35 cm from the light source. In order to optimize cross-linking conditions we made use of the characteristic absorption of the diazirine group (FIG. 8). An ethanolic solution of 10-azi stearic acid (10-ASA) was irradiated under the conditions described above and the loss of absorption at 349.5 nm was monitored (FIG. 9, Panel A). Thirty seconds of irradiation activated 95% of the photoactivatable group. Samples were UV irradiated for 1 minute. To exclude degradation of proteins under these conditions a 1 mg/ml solution of BSA was irradiated up to 5 minutes and analyzed by gel electrophoresis and subsequent Coomassie staining (FIG. 9, Panel B). […]

[2] = Stability of terminal alkyne towards UV irradiation, 1H-NMR analysis; assay type: physicochemical; conditions: irradiation for 5 minutes
[3] = system: CHO-CGalT cells; experiment: Morphology of cells after labeling with pacFAs; assay type: cell-based; conditions: cells labeled with pacFA
[4] = system: CHO-CGalT cells; experiment: Incorporation of pacFAs into cellular lipids, lipid extracts analysed by nano-ESI-MS/MS; assay type: cell-based; conditions: 100 μM, 16 hours
Procedure: FIGS. 7A and 7B. Mass spectrometric analysis of photoactivatable and clickable PC species. CHO-CGaIT cells (−5×10^7 cells) were labeled for 16 hours in delipidated medium in the absence (upper panel) or presence (lower panel) of 100 μM (FIG. 7A) C15pacFA or (FIG. 7B) C16pacFA. Lipids were extracted, dried and subsequently dissolved in 5 mM ammonium acetate in MeOH and subjected to nano-ESI-MS/MS. Shown are PREC184 spectra visualizing choline phosphate-containing lipids. Abbreviations give the total number of carbon atoms of fatty acids attached and the numbers of double bonds within the fatty acid. Transparent bars highlight PC species containing the pacFAs.
Given the small size of fatty acids, additional functional groups might have an impact on their physical properties. Due to the rigidity of the triple bond pacFAs are slightly kinked in the end and their overall length is shorter compared with their corresponding natural counterparts. […] Phosphatidylcholine (PC) is the major lipid class in eukaryotic cells. To analyze choline phosphate containing species, a precursor ion scanning procedure was employed selecting for fragments with a mass of 184 Da. […] UV irradiation of the lipid extracts gave rise to peaks with a mass 28 Da lower than the corresponding pacPC species due to the release of nitrogen followed by either an α-hydrogen migration or an intramolecular crosslink of the carbene (data not shown).^[4] […] SM16:0 is the major SM species in CHO cells. Its biosynthesis requires two palmitoyl-CoA: (i) as a precursor of the sphingoid backbone and (ii) for its N-acylation. The length of the N-acylated fatty acid is strictly controlled since there is no SM14:0 and only a minor amount of SM18:0 in CHO cells.^[5] Therefore, we assumed that the chain length of C15pacFA might interfere with its incorporation into SM. […]
Lipids were extracted according to Bligh and Dyer and analyzed as described previously (K. Retra, O. B. Bleijerveld, R. A. van Gestel, A. G. Tielens, J. J. van Hellemond, J. F. Brouwers, Rapid Commun. Mass Spectrom. 2008, 22, 1853.^[20]

[5] = target: defatted bovine serum albumin (BSA) (Bos taurus, UniProt P02769); experiment: Photo-affinity labeling of defatted BSA with C15pacFA, click reaction with biotin-azide, Western blot; assay type: binding; conditions: incubation with C15pacFA, UV-irradiation and click reaction with biotin-azide
defatted bovine serum albumin (BSA), sequence (P02769 25-607): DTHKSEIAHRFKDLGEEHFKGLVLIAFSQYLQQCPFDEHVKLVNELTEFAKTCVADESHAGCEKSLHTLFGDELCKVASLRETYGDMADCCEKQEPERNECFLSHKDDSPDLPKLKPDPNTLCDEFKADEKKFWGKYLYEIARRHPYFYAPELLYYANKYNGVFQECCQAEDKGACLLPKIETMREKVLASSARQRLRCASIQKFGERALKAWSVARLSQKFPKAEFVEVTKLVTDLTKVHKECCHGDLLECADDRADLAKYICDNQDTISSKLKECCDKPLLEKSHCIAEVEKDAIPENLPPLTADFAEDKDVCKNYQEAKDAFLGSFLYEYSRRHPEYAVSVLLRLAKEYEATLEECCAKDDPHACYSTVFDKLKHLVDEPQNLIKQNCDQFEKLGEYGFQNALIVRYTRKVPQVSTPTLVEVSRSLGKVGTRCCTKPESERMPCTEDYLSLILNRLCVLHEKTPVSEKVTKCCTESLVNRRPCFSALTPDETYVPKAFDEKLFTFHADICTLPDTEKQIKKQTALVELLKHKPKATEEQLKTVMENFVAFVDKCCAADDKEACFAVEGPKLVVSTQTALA
Procedure: As a proof-of-concept that C15pacFA can be used to tag proteins with an affinity for fatty acids, defatted bovine serum albumin (BSA) was incubated with C15pacFA and subsequently UV-irradiated. Thereafter, the mixture was subjected to a click reaction, applying biotin-azide (see FIG. 5). […] CuSO4 serves as a source for Cu(I) that is required for the catalytic cycle of the [3+2] cyclo-addition and was formed in situ by the addition of the reducing agent TCEP.
Samples were irradiated applying a 200 W high pressure mercury lamp (Oriel Photomax) equipped with a PYREX® glass filter to remove wavelengths below 350 nm. Samples were placed on ice at a distance from 35 cm from the light source. […] Samples were UV irradiated for 1 minute. […]

[6] = system: membrane and cytosolic proteins of CHO-CGalT cells; experiment: In vivo labeling of cells with C15pacFA, alexa488-azide click of membranes and cytosol, SDS-PAGE in-gel fluorescence; assay type: cell-based; conditions: membranes and cytosol after UV irradiation
Procedure: FIG. 2. In vivo labeling of proteins interacting with lipids. CHO-CGalT cells were labeled with and without 100 μM C15pacFA for 16 hours. Where indicated, cells were UV irradiated. Total membranes were separated from cytosol. The cytosolic proteins were precipitated by CHCl3/MeOH precipitation and total membranes as well as the cytosolic precipitate were subjected to click reaction conditions using alexa488-azide or biotin-azide. Panel A, Proteins labeled with alexa488-azide were separated by SDS-PAGE and analyzed by in-gel fluorescence. […] The lanes were cut into ten gel pieces as indicated and analyzed by mass spectrometry as described herein. […]
In order to see whether pacFAs can be used to investigate protein-lipid interactions in vivo, we administered C15pacFA to cells. […] Both membranes and cytosol were subjected to click reaction conditions and samples were analyzed by SDS-PAGE and in-gel fluorescence (FIG. 2). […] 208 proteins were identified that were exclusively detected upon labeling cells with C15pacFA (FIG. 2, Panel D, lane III). […] Proteins that were exclusively detected upon labeling with C15pacFA and subsequent cross-linking (lane IV) are given in Table 2. […]

[7] = system: HeLa cells; experiment: Cell imaging of bifunctional lipids: UV fixation, lipid extraction, alexa-azide click, fluorescent microscopy; assay type: cell-based; conditions: UV irradiated versus non-irradiated, non-crosslinked lipids extracted
Procedure: Microscopy of lipids requires a fluorescent tag on the lipid. In contrast to polyene lipids, most fluorescent tags interfere with the properties of thus labeled lipids.^[24] […] Lipids are highly dynamic and their chemical fixation remained difficult. […] To this end, C15pacFA was administered to cells. Lipids were fixed in vivo by UV-irradiation followed by the fixation of cells with methanol. In order to remove non-protein-crosslinked lipids, cells were extracted according to Bligh and Dyer.^[27] Samples were subjected to click reactions with alexa-azide and lipids were visualized by fluorescent microscopy.
HeLa cells grown on cover slips in a 24-well plate were labeled for 1 hour in 0.5 ml DMEM 4.5 g/liter glucose supplemented with 10% delipidated FCS and 100 μM C15pacFA. The cells were washed with 0.5 mL PBS, overlaid with 0.5 mL PBS and UV irradiated on ice for 2 minutes. After UV irradiation the cells were fixed with 0.5 mL of −20° C. cold MeOH for 10 minutes. After fixation cells were subjected to one, two or three rounds of lipid extraction according to Bligh and Dyer using 0.5 ml of CHCl3/MeOH/AcOH 10:55:0.75 v/v for each extraction (for each extraction coverslips were incubated for 1 minute at room temperature). The coverslips were washed with 0.5 mL PBS and then subjected to click reactions. […]

[8] = target: lysozyme (Gallus gallus, UniProt P00698); experiment: Photo-affinity labeling of lysozyme with C15pacFA (specificity control), click reaction with biotin-azide, Western blot; assay type: binding; conditions: same conditions as BSA; protein known not to interact with lipids
lysozyme, sequence (P00698 19-147): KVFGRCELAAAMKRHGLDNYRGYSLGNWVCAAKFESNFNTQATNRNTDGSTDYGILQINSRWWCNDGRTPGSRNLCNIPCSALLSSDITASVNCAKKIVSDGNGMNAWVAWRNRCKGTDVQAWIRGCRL
Procedure: FIG. 5. Panel A, Proof-of-concept for the specific interaction of pacFA with a fatty acid binding protein. An ethanolic solution of C15pacFA was added to a solution of defatted-BSA or lysozyme in PBS as described above. After incubating for 1 hour at room temperature samples were UV-irradiated and 20 μl were subjected to click reaction with biotin-azide. Samples were analyzed by SDS-PAGE, followed by Western blotting and detection via NeutrAvidin coupled to horse radish peroxidase. Panel B, SDS-PAGE and subsequent staining with Coomassie brilliant blue.
Serum albumin binds and transports fatty acids. As a proof-of-concept that C15pacFA can be used to tag proteins with an affinity for fatty acids, defatted bovine serum albumin (BSA) was incubated with C15pacFA and subsequently UV-irradiated. […]
Samples were irradiated applying a 200 W high pressure mercury lamp (Oriel Photomax) equipped with a PYREX® glass filter to remove wavelengths below 350 nm. […] An ethanolic solution of 10-azi stearic acid (10-ASA) was irradiated under the conditions described above and the loss of absorption at 349.5 nm was monitored (FIG. 9, Panel A). […] To exclude degradation of proteins under these conditions a 1 mg/ml solution of BSA was irradiated up to 5 minutes and analyzed by gel electrophoresis and subsequent Coomassie staining (FIG. 9, Panel B). […]

CCCCCCCCC1(CCCCCCCCC(=O)O)N=N1 [10-ASA, 10-azi-stearic acid]
activation of the photoactivatable group [1]: 95%

C#CCc1ccccc1 [3-phenyl-1-propyne]
stability towards UV irradiation [2]: stability of alkynes towards UV irradiation

C#CCCCC1(CCCCCCCCC(=O)O)N=N1 [C16pacFA, 9-(3-Pent-4-ynyl-3-H-diazirin-3-yl)-nonanoic acid]
morphological differences after labeling [3]: No morphological differences were observed | incorporation into sphingomyelin (SM) [4]: no incorporation

C#CCCCC1(CCCCCCCCC(=O)O)N=N1 [C15pacFA, 9-(3-pent-4-ynyl-3-H-diazirin-3-yl)-nonanoic acid]
labeling of BSA [5]: BSA could be labeled | morphological differences after labeling [3]: No morphological differences were observed | proteins labeled by photo-affinity labeling (in-gel fluorescence) [6]: not only membrane proteins were labeled by means of photo-affinity labeling but also cytosolic proteins | incorporation into sphingomyelin (SM) [4]: No significant incorporation | incorporation into phosphatidylcholine (pacPC species) ([4]; precursor ion scan 184 Da): led to additional peaks corresponding to pacPC species | fluorescent structures after click reaction with alexa-azide [7]: Fluorescent structures were only visible in the UV irradiated samples | labeling of lysozyme [8]: no labeling of lysozyme was observed
